# According to patent US8691799B2, “Materials and methods for treatment of cancer and identification of anti-cancer compounds” (priority 2001, dated 2014):
# Columns and labels:
# phosphotyrosine STAT3 = assay: Cytoblot screening for phospho-STAT3 inhibition in v-Src-transformed NIH 3T3 cells; assay type: cell-based, murine; conditions: 10 μM, 4 hr
# Experimental: Cytoblot Screening for Phospho-STAT3 Inhibition. NIH 3T3 cells stably transfected with v-Src or NIH 3T3 vector control cells (Turkson, J. et al. Mol. Cell Biol., 1999, 19:7519-7528) were plated into sterile, opaque, 96-well tissue culture plates at 25,000 cells/well. After overnight growth at 37° C., the cells were treated for 4 hr in the presence of either vehicle control or 10 μM of NCI Diversity Set compounds (http://dtp.nci.nih.gov/). After treatment, cells were washed in 100 μl cold TBS (10 mM Tris, pH 7.4, 150 mM NaCl), then fixed for one hour at 4° C. with 190 μl per well of cold 3.7% formaldehyde in TBS as described previously (Stockwell, B. R. et al. Chem. Biol., 1999, 6:71-83). Membranes were permeabilized during a five-minute incubation in ice-cold methanol at 4° C. Cells were washed with 180 μl per well 3% milk in TBS then rocked overnight at 4° C. with 50 μl per well of 3% milk in TBS containing 1:1000 dilution of anti-phospho-STAT3 (P-Tyr 705; Cell Signaling Technology, Beverly, Mass.) and 1:2000 dilution of HRP-conjugated goat anti-rabbit IgG (Jackson ImmunoResearch, West Grove, Pa.). Antibodies were aspirated and then plates were washed twice with 180 μl per well TBS. […] Quantification of results was done using GS-700 scanning densitometer (Bio-Rad Laboratories, Hercules, Calif.).
# JAK2 = molecular target: T1, JAK2 (Homo sapiens, UniProt O60674); assay: JAK kinase autophosphorylation assay on immunoprecipitates (JAK2); assay type: biochemical; conditions: immunoprecipitates from A549, MDA-MB-468 or v-Src/NIH 3T3 cells; AG490 100 μM, PD180970 2 μM
# T1 construct: Src, JAK1, and JAK2 were immunoprecipitated from either A549, MDA-MB-468, or v-Src/NIH 3T3 cells; endogenous in cells; host or cells: A549, MDA-MB-468, v-Src transformed NIH 3T3 (immunoprecipitates)
# Experimental: JAK Kinase Assays. A549, MDA-MB-468, and v-Src transformed NIH 3T3 cells were harvested, washed three times in PBS-V (10 mM sodium phosphate, pH 7.4, 137 mM NaCl, 1 mM sodium orthovanadate) then lysed for 30 min on ice in JAK kinase lysis buffer (25 mM Hepes, pH 7.4, 0.1% Triton-X-100, 0.5 mM DTT, 1 mM sodium orthovanadate, 1 mM PMSF, 10 μg/ml aprotinin, 10 μg/ml leupeptin). Samples were spun at high speed to clear, and 800-1000 μg of protein was immunoprecipitated per treatment condition with 50 ng of either JAK1 or JAK2 antibody (Santa Cruz Biotechnology) rocking overnight at 4° C. 25 μl of protein A/G PLUS agarose then was added and rocking continued for 1 hr at 4° C. Samples were spun to collect agarose pellet, and pellet washed twice in wash buffer (50 mM Hepes, pH 7.4, 0.1% Triton-X-100, 0.5 mM DTT, 150 mM NaCl) and once in phosphorylation buffer (50 mM Hepes, pH 7.4, 0.1% Triton-X-100, 0.5 mM DTI, 6.25 mM manganese chloride, 100 mM NaCl). Kinase reactions were performed at 30° C. for 15 min in a final volume of 100 μl of phosphorylation buffer. Samples were pretreated with DMSO control, JSI-124, and control compounds (AG490, 100 μM, and […], 2 μM) before addition of 20 μCi/sample y-[^32P]ATP. Reaction was halted using stop buffer (wash buffer plus 10 mM EDTA), samples spun to collect pellet, then pellet washed once with stop buffer and twice with wash buffer. Samples were then placed in 2×SDS-PAGE sample buffer, boiled at 100° C., and run on 8% SDS-PAGE gels to separate proteins. Autophosphorylation results were visualized by autoradiography.
# [1] = personal communication; cited from earlier work
# A549 tumors = assay: Antitumor activity, A549 xenograft in nude mice; assay type: in vivo
# Description: Antitumor Activity in the Nude Mouse Tumor Xenograft Model. Nude mice and C57 BL-6 black mice (National Cancer Institute, Bethesda, Md.) were maintained in accordance with the Institutional Animal Care and Use Committee (IACUC) procedures and guidelines. v-Src- and oncogenic H-Ras-transformed NIH 3T3, A549, MDA-MB-468 and Calu-1 cells were harvested, resuspended in PBS and injected s.c. into the right and left flank (10×10^6 cells per flank) of 8 week old female nude mice as reported previously (Sun, J. et al. Cancer Res., 1999, 59:4919-4926). Similarly, murine B16-F10 Melanoma cells were injected s.c. into the right and left flank (10^6 cells per flank) of C57 black mice. When tumors reached about 150 mm^3, animals were randomized (five animals per group; two tumors per animal) and dosed i.p. with 0.2 ml once daily. […] The tumor volumes were determined by measuring the length (l) and the width (w) and calculating the volume (V=1w^2/2) as described previously (Sun, J. et al. Cancer Res., 1999, 59:4919-4926). Statistical significance between control and treated animals were evaluated by using Student's t-test. For the mouse survival experiments, C57 BL-6 black mice were implanted s.c. with B16-F10 cells (10^5 to 10^6 cells per flank). […] Percent surviving mice was determined by monitoring the death of mice until all mice died. […]
# T1 sequence (O60674 whole entry): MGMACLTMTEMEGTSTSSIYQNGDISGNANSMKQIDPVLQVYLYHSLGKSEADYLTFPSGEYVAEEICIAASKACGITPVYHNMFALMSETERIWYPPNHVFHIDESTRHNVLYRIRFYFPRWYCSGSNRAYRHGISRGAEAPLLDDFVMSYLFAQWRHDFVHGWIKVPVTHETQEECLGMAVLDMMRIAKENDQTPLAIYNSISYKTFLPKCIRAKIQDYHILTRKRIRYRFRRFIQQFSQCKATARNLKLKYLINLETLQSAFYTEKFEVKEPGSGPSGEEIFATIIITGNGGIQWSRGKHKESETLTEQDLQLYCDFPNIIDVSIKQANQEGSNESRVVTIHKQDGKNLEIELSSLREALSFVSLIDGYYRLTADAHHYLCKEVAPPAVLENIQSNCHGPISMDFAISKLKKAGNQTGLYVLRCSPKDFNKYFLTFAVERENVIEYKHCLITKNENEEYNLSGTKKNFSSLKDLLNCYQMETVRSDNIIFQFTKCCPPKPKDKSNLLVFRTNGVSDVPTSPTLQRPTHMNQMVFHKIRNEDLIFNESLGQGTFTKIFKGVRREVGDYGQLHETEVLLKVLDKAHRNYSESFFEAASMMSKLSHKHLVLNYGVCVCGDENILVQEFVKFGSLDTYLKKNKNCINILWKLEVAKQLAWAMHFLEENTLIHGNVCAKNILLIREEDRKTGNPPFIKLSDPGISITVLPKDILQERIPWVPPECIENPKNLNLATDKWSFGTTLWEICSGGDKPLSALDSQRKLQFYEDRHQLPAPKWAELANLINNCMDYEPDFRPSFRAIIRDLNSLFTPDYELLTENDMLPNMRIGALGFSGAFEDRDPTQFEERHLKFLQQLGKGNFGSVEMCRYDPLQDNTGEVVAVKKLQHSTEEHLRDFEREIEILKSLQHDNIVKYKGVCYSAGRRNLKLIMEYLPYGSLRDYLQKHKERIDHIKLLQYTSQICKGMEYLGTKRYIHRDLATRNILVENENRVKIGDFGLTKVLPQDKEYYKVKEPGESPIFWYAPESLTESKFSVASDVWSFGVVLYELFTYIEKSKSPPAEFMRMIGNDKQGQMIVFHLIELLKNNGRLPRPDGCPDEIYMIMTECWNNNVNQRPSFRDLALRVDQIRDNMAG
structure (smiles),measurement,setting,value
"CC(C)(O)/C=C/C(=O)[C@](C)(O)[C@H]1[C@H](O)C[C@@]2(C)[C@@H]3CC=C4[C@@H](C=C(O)C(=O)C4(C)C)[C@]3(C)C(=O)C[C@]12C [JSI-124, cucurbitacin I]",phosphotyrosine STAT3 levels (cytoblot),phosphotyrosine STAT3,reduced phosphotyrosine STAT3 to barely detectable levels
same,JAK2 kinase activity (autophosphorylation) in vitro,JAK2,not affected
same,edema at the subcutaneous site of injection (NCI Developmental Therapeutics Program),[1],edema was observed at the subcutaneous site of injection
same,"inhibition of A549 tumor growth, reduced dose","A549 tumors; 0.5 mg/kg/day for 23 days, nude mice (data not shown)",52%
same,inhibition of A549 tumor growth,"A549 tumors; 1 mg/kg/day i.p., nude mice",76%
